Data on 23 molecules can be found in patent publication US10414763B2 (CANCER RESEARCH TECHNOLOGY LIMITED, priority 2014, dated 2019).

For the experiment, the target named is T1, full-length human PKCι (Homo sapiens, UniProt P41743).
T1 construct: Recombinant, full-length human PKCι expressed in Sf21 insect cells is also commercially available; purchased EMD Millipore; host or cells: Sf21 insect cells (baculovirus)
T1 sequence (P41743 1-596): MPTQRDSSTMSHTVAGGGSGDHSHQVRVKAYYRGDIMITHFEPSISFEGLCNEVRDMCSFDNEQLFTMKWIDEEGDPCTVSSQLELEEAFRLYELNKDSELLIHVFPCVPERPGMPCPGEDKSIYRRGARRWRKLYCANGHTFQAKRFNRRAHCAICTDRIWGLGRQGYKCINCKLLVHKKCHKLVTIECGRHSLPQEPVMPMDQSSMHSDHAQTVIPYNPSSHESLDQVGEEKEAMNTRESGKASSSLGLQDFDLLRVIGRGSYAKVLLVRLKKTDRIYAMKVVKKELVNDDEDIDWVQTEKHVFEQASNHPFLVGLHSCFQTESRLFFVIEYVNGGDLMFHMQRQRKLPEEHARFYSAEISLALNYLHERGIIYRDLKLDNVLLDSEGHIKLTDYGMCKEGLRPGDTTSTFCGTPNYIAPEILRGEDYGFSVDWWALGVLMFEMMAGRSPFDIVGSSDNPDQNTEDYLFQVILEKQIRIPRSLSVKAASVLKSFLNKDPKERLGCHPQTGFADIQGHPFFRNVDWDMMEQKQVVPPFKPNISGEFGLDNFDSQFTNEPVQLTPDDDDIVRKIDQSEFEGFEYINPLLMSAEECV
The experiment in a line: PKCι IC50 IMAP fluorescence polarisation assay, full-length enzyme, 150 μM ATP. In kind it is biochemical. The following applies: read-out: IC50 in IMAP assay against full length PKCi at 150 μM ATP. Summed up:
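IMAP fluorescence polarisation kinase assay: 15 pM baculovirus-expressed human PKCiota with 100 nM FAM-pseudosubstrate peptide and 150 μM ATP, 1 h at 25 °C. IMAP detection reagent then 2 h at 25 °C before FP measurement. Inhibition referenced to no-compound and no-enzyme controls for IC50 fitting.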
Turning to `O[C@@H]1CNCC[C@H]1Nc1nc(-c2ccnc(Nc3ncccc3F)c2)nc2cncc(C3CC3)c12` (racemic) [Example 308, rac-(3R,4R)-4-{5-Cyclopropyl-2-[2-(3-fluoro-pyridin-2-ylamino)-pyridin-4-yl]-pyrido[3,4-d]pyrimidin-4-ylamino}-piperidin-3-ol], the half-maximal inhibitory concentration (IC50) (commonly the midpoint of a concentration-inhibition curve) was in the range of 100 to 1000 nM. Turning to `O[C@@H]1CNCC[C@H]1Nc1nc(-c2ccnc(Nc3ncc(F)cc3F)c2)nc2cncc(C3CC3)c12` (racemic) [Example 309, rac-(3R,4R)-4-{5-Cyclopropyl-2-[2-(3,5-difluoro-pyridin-2-ylamino)-pyridin-4-yl]-pyrido[3,4-d]pyrimidin-4-ylamino}-piperidin-3-ol], the IC50 is less than 100 nM. With `O[C@@H]1CNCC[C@H]1Nc1nc(-c2ccnc(Nc3nc(F)cc(F)c3F)c2)nc2cncc(C3CC3)c12` (racemic) [Example 310, rac-(3R,4R)-4-{5-Cyclopropyl-2-[2-(3,4,6-trifluoro-pyridin-2-ylamino)-pyridin-4-yl]-pyrido[3,4-d]pyrimidin-4-ylamino}-piperidin-3-ol], the IC50 was less than 100 nM.

For `Cc1nc(Nc2cc(-c3nc(N[C@H]4CCNC[C@H]4C)c4c(C5CCC5)cncc4n3)ccn2)ccc1C#N` (racemic) [Example 311, 6-{4-[5-Cyclobutyl-4-(rac-(3R,4S)-3-methyl-piperidin-4-ylamino)-pyrido[3,4-d]pyrimidin-2-yl]-pyridin-2-ylamino}-2-methyl-nicotinonitrile], the IC50 was less than 100 nM. Consider `Cc1nc(Nc2cc(-c3nc(N[C@@H]4CCNC[C@H]4C)c4c(C5CCC5)cncc4n3)ccn2)ccc1C#N` (racemic) [Example 312, 6-{4-[5-Cyclobutyl-4-(rac-(3R,4R)-3-methyl-piperidin-4-ylamino)-pyrido[3,4-d]pyrimidin-2-yl]-pyridin-2-ylamino}-2-methyl-nicotinonitrile], for which the IC50 was less than 100 nM. In the case of `Cc1nc(Nc2cc(-c3nc(N[C@@H]4CCNC[C@@H]4O)c4c(C5CCC5)cncc4n3)ccn2)ccc1C#N` (racemic) [Example 313, 6-{4-[5-Cyclobutyl-4-(rac-(3S,4R)-3-hydroxy-piperidin-4-ylamino)-pyrido[3,4-d]pyrimidin-2-yl]-pyridin-2-ylamino}-2-methyl-nicotinonitrile], the IC50 is less than 100 nM. With `Cc1nc(Nc2cc(-c3nc(N[C@@H]4CCNC[C@H]4O)c4c(C5CCC5)cncc4n3)ccn2)ccc1C#N` (racemic) [Example 314, 6-{4-[5-Cyclobutyl-4-(rac-(3R,4R)-3-hydroxy-piperidin-4-ylamino)-pyrido[3,4-d]pyrimidin-2-yl]-pyridin-2-ylamino}-2-methyl-nicotinonitrile], the IC50 was less than 100 nM. On to `N[C@@H]1CN(c2nc(-c3ccnc4[nH]c5ccccc5c34)nc3cncc(C4CCC4)c23)C[C@H]1O` (racemic) [Example 343, rac-(3R,4R)-4-Amino-1-[5-cyclobutyl-2-(9H-pyrido[2,3-b]indol-4-yl)-pyrido[3,4-d]pyrimidin-4-yl]-pyrrolidin-3-ol], for which the IC50 lay in the range of 100 to 1000 nM. As for `O[C@H]1CNCC[C@H]1Nc1nc(-c2ccnc3[nH]c4ccccc4c23)nc2cncc(C3CCC3)c12` (racemic) [Example 344, rac-(3S,4R)-4-[5-Cyclobutyl-2-(9H-pyrido[2,3-b]indol-4-yl)-pyrido[3,4-d]pyrimidin-4-ylamino]-piperidin-3-ol], the figure is less than 100 nM; as for `O[C@@H]1CNCC[C@H]1Nc1nc(-c2ccnc3[nH]c4ccccc4c23)nc2cncc(C3CCC3)c12` (racemic) [Example 345, rac-(3R,4R)-4-[5-Cyclobutyl-2-(9H-pyrido[2,3-b]indol-4-yl)-pyrido[3,4-d]pyrimidin-4-ylamino]-piperidin-3-ol], less than 100 nM.

Regarding `C[C@@H]1CNCC[C@H]1Nc1nc(-c2ccnc3[nH]c4ccccc4c23)nc2cncc(C3CCC3)c12` (racemic) [Example 346, [5-Cyclobutyl-2-(9H-pyrido[2,3-b]indol-4-yl)-pyrido[3,4-d]pyrimidin-4-yl]-(rac-(3R,4R)-3-methyl-piperidin-4-yl)-amine], the IC50 is less than 100 nM. In the case of `C[C@H]1CNCC[C@H]1Nc1nc(-c2ccnc3[nH]c4ccccc4c23)nc2cncc(C3CCC3)c12` (racemic) [Example 347, [5-Cyclobutyl-2-(9H-pyrido[2,3-b]indol-4-yl)-pyrido[3,4-d]pyrimidin-4-yl]-(rac-(3S,4R)-3-methyl-piperidin-4-yl)-amine], the IC50 was less than 100 nM. Regarding `O[C@H]1CNCC[C@H]1Nc1nc(-c2ccnc3[nH]c4ccccc4c23)nc2cncc(C(F)(F)F)c12` (racemic) [Example 349, rac-(3S,4R)-4-[2-(9H-Pyrido[2,3-b]indol-4-yl)-5-trifluoromethyl-pyrido[3,4-d]pyrimidin-4-ylamino]-piperidin-3-ol], the concentration for half-maximal inhibition (IC50) was in the range of 100 to 1000 nM. As to `O[C@@H]1CNCC[C@H]1Nc1nc(-c2ccnc3[nH]c4ccccc4c23)nc2cncc(C(F)(F)F)c12` (racemic) [Example 350, rac-(3R,4R)-4-[2-(9H-Pyrido[2,3-b]indol-4-yl)-5-trifluoromethyl-pyrido[3,4-d]pyrimidin-4-ylamino]-piperidin-3-ol], the IC50 is less than 100 nM. For the molecule `C[C@H]1CNCC[C@H]1Nc1nc(-c2ccnc3[nH]c4ccccc4c23)nc2cncc(C(F)(F)F)c12` (racemic) [Example 351, rac-(3S,4R)-3-Methyl-piperidin-4-yl)-[2-(9H-pyrido[2,3-b]indol-4-yl)-5-trifluoromethyl-pyrido[3,4-d]pyrimidin-4-yl]-amine], the IC50 was 100 to 1000 nM. `C[C@@H]1CNCC[C@H]1Nc1nc(-c2ccnc3[nH]c4ccccc4c23)nc2cncc(C(F)(F)F)c12` (racemic) [Example 352, (rac-(3R,4R)-3-Methyl-piperidin-4-yl)-[2-(9H-pyrido[2,3-b]indol-4-yl)-5-trifluoromethyl-pyrido[3,4-d]pyrimidin-4-yl]-amine]: the IC50 is less than 100 nM.

As for `C[C@@]1(O)CNCC[C@H]1Nc1nc(-c2ccnc3[nH]c(-c4cc(F)ccc4Cl)cc23)nc2cncc(C3CC3)c12` (racemic) [Example 354, rac-(3R,4R)-4-{2-[2-(2-Chloro-5-fluoro-phenyl)-1H-pyrrolo[2,3-b]pyridin-4-yl]-5-cyclopropyl-pyrido[3,4-d]pyrimidin-4-ylamino}-3-methyl-piperidin-3-ol], the IC50 was less than 100 nM. As for `O[C@@]12CCN(c3nc(-c4ccnc5[nH]c(-c6cc(F)ccc6Cl)cc45)nc4cncc(C5CC5)c34)[C@@H]1CCNC2` (racemic) [Example 358, rac(1R,3aS)-1-{2-[2-(2-Chloro-5-fluoro-phenyl)-1H-pyrrolo[2,3-b]pyridin-4-yl]-5-cyclopropyl-pyrido[3,4-d]pyrimidin-4-yl}-octahydro-pyrrolo[3,2-c]pyridin-3a-ol], the figure is less than 100 nM; as for `CN(c1nc(-c2ccnc3[nH]c(-c4cc(F)ccc4Cl)cc23)nc2cncc(C3CC3)c12)[C@@H]1CCNC[C@@]1(C)O` (racemic) [Example 359, rac-(3R,4R)-4-({2-[2-(2-Chloro-5-fluoro-phenyl)-1H-pyrrolo[2,3-b]pyridin-4-yl]-5-cyclopropyl-pyrido[3,4-d]pyrimidin-4-yl}-methyl-amino)-3-methyl-piperidin-3-ol], less than 100 nM; as for `O[C@H]1CNCC[C@H]1Nc1nc(-c2ccnc(Nc3nc(F)ccc3F)c2)nc2cncc(C3CCC3)c12` (racemic) [Example 381, rac-(3S,4R)-4-{5-Cyclobutyl-2-[2-(3,6-difluoro-pyridin-2-ylamino)-pyridin-4-yl]-pyrido[3,4-d]pyrimidin-4-ylamino}-piperidin-3-ol], less than 100 nM. `C[C@H]1C[C@@H](Nc2nc(-c3ccnc(Nc4nc(F)ccc4F)c3)nc3cncc(C4CCC4)c23)CCN1` (racemic) [Example 386, {5-Cyclobutyl-2-[2-(3,6-difluoro-pyridin-2-ylamino)-pyridin-4-yl]-pyrido[3,4-d]pyrimidin-4-yl}-(rac-(2S,4S)-2-methyl-piperidin-4-yl)-amine]: the IC50 was less than 100 nM.

Regarding `C[C@@H]1C[C@@H](Nc2nc(-c3ccnc(Nc4nc(F)ccc4F)c3)nc3cncc(C4CCC4)c23)CCN1` (racemic) [Example 387, {5-Cyclobutyl-2-[2-(3,6-difluoro-pyridin-2-ylamino)-pyridin-4-yl]-pyrido[3,4-d]pyrimidin-4-yl}-(rac-(2R,4S)-2-methyl-piperidin-4-yl)-amine], the IC50 is less than 100 nM. As for `C[C@@H]1CNCC[C@H]1Nc1nc(-c2ccnc(Nc3nc(F)ccc3F)c2)nc2cncc(C3CCC3)c12` (single isomer, unassigned) [Example 279, {5-Cyclobutyl-2-[2-(3,6-difluoro-pyridin-2-ylamino)-pyridin-4-yl]-pyrido[3,4-d]pyrimidin-4-yl}-((3R,4R)-3-methyl-piperidin-4-yl)-amine or enantiomer], the IC50 was less than 100 nM.
